# “Also recorded” adds a separate entry of the source.
# Legend:
# Format in all cases: cell-based, human
# TE-7 cells = test: DAC treatment negative control, EMX2 expression by semi-quantitative RT-PCR in TE-7; conditions: TE-7 cells that endogenously expressed EMX2
# OE33 cells = test: DAC de-methylation treatment, EMX2 expression by semi-quantitative RT-PCR in OE33; conditions: OE33 cells that did not originally express EMX2
# [1] = tested on: EMX2 expression in NSCLC cell lines; test: DAC de-methylation treatment of NSCLC cell lines, EMX2 expression by semi-quantitative RT-PCR; conditions: 5 μM DAC, NSCLC / lung cancer cell lines with initially silenced EMX2
# Experimental: Reverse transcription-polymerase chain reaction (RT-PCR) was performed in a GeneAmp PCR system 9700 (Applied Biosystems, Foster City, Calif.), using an RT-PCR kit (SuperScript II one-step RT-PCR with Platinum Taq kit; Invitrogen, Carlsbad, Calif.) according to the manufacturer's protocol. Primers for RT-PCR were obtained from Operon Biotechnologies (Huntsville, Ala.). Total RNA of normal human lung was obtained from the Biochain Institute (Hayward, Calif.). Total RNA (500 ng) was used for each reaction. Primer sequences were as follows: human EMX2 DNA, Forward primer; 5′-[…]-3′ (SEQ ID NO: 3), Reverse primer; 5′-[…]-3′ (SEQ ID NO:4).
# Human NSCLC cell lines H1299, H322 and A427 were purchased from American Type Culture Collection (ATCC), (Manassas, Va.). These cell lines were cultured in RPMI 1640 supplemented with 10% fetal bovine serum, penicillin (100 IU/mL) and streptomycin (100 μg/mL). All cells were cultured at 37° C. in a humidified incubator with 5% CO2. Total RNA from cell lines was isolated using RNeasy Mini kit (Qiagen). Treatment with 5 μM 5-aza-2′-deoxycytidine (DAC; Sigma) was done according to Clement G. et al., “Epigenetic alteration of the Wnt inhibitory factor-1 promoter occurs early in the carcinogenesis of Barrett's esophagus.” Cancer Sci 99:46-53 (2008).
# Cell Culture and 5-Aza-2′-deoxycytidine (DAC) Treatment. […]
# [2] = tested on: H1299 cells stably transfected with EMX2; test: MTS assay of chemo-synergic effect between EMX2 and cisplatin; conditions: compared with cisplatin or EMX2 alone, cisplatin 0.3 ng/ml (FIG. 23D)
# Experimental: The chemo-synergic effect between EMX2 and cisplatin was examined in order to determine whether EMX2 could sensitize NSCLC cells to cisplatin treatment. The H1299 lung cancer cell line was stably transfected with EMX2 The chemo-synergic effect between EMX2 and cisplatin was measured in this cell line by MTS assay (Promega, Madison, Wis.).
# Stable EV- or EMX2 transfected cells were plated in 96-well plates at a density of 500 cells per well in 100 μl of culture medium with G418. Medium was changed every three days. Cell viability was evaluated by CELLTITER 96 Aqueous one solution cell proliferation assay (MTS assay) (Promega, Madison, Wis.) on days 1-7. Briefly, 20 μl of reagent was added to each well and incubated in a culture hood for 2 hr. Absorbance at 490 nm was measured with a kinetic microplate reader (Vmax; Molecular Devices, Sunnyvale, Calif.) and was used as a measure of cell number. Experiments were repeated three times.
# Proliferation Assays. Stably transfected cells were plated in 96-well plates at a density of 500-1000 cells/well in 100 μl of G418 culture medium. Medium was changed every day. Cell viability was evaluated in triplicate by CellTiter 96 AQueous (Promega) per manufacturer's protocol. […] Colonies were then fixed by 10% formalin, stained with 0.5% crystal violet and counted.
SMILES,EMX2 expression levels after DAC treatment (TE-7 cells),EMX2 expression after DAC treatment (OE33 cells),EMX2 expression after DAC treatment (OE33 cells; listed as 5-aza-DAC),EMX2 expression after DAC treatment [1],Suppression of cell proliferation by cisplatin combined with EMX2 [2]
"Nc1ncn([C@H]2C[C@H](O)[C@@H](CO)O2)c(=O)n1 [DAC, 5-aza-2′-deoxycytidine]",not affected,restoration of EMX2 expression,restored,restored EMX2 expression levels,
N.N.[Cl][Pt][Cl] [cisplatin],,,,,further enhanced; also recorded: more efficiently suppressed; also recorded: significantly enhanced

# From patent US9279157B2, “EMX2 in cancer diagnosis and prognosis” (The Regents of the University of California, priority 2009, dated 2016)
